Measurements taken from ChEMBL document CHEMBL5678818, “Discovery of potent SOS1 inhibitors that block RAS activation via disruption of the RAS-SOS1 interaction” (Proc Natl Acad Sci U S A, 2019).

How the values were obtained:
[1] = system: eIF-2-alpha kinase GCN2 (Homo sapiens), Q9P2K8 [S808G]; experiment: Inhibition of GCN2 S808G mutant […] domain (unknown origin) assessed as residual activity at 100 nM by KINOMEscan analysis relative to control
[2] = molecular target: T1, cAMP-dependent protein kinase catalytic subunit PRKX (Homo sapiens) (UniProt P51817); experiment: Inhibition of PRKX (unknown origin) assessed as residual activity at 100 nM by KINOMEscan analysis relative to control
T1 sequence (whole entry): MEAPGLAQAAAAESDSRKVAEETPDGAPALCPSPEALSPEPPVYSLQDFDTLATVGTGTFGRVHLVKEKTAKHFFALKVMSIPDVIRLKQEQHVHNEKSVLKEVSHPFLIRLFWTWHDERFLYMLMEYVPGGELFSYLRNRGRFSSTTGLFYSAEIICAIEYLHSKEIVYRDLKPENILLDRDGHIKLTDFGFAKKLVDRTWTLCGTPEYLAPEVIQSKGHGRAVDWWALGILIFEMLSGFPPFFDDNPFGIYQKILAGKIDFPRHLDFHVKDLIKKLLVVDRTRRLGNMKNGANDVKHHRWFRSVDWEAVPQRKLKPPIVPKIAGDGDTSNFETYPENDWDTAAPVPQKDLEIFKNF

[3] = molecular target: Casein kinase I isoform gamma-2 (Homo sapiens) (UniProt P78368); experiment: Inhibition of CSNK1G2 (unknown origin) assessed as residual activity at 100 nM by KINOMEscan analysis relative to control
[4] = system: Phosphatidylinositol 4,5-bisphosphate 3-kinase catalytic subunit alpha isoform (Homo sapiens), P42336 [H1047Y]; experiment: Inhibition of PIK3CA H1047Y mutant (unknown origin) assessed as residual activity at 100 nM by KINOMEscan analysis relative to control
[5] = molecular target: T2, Ephrin type-B receptor 1 (Homo sapiens) (UniProt P54762); experiment: Inhibition of EPHB1 (unknown origin) assessed as residual activity at 100 nM by KINOMEscan analysis relative to control
T2 sequence (whole entry): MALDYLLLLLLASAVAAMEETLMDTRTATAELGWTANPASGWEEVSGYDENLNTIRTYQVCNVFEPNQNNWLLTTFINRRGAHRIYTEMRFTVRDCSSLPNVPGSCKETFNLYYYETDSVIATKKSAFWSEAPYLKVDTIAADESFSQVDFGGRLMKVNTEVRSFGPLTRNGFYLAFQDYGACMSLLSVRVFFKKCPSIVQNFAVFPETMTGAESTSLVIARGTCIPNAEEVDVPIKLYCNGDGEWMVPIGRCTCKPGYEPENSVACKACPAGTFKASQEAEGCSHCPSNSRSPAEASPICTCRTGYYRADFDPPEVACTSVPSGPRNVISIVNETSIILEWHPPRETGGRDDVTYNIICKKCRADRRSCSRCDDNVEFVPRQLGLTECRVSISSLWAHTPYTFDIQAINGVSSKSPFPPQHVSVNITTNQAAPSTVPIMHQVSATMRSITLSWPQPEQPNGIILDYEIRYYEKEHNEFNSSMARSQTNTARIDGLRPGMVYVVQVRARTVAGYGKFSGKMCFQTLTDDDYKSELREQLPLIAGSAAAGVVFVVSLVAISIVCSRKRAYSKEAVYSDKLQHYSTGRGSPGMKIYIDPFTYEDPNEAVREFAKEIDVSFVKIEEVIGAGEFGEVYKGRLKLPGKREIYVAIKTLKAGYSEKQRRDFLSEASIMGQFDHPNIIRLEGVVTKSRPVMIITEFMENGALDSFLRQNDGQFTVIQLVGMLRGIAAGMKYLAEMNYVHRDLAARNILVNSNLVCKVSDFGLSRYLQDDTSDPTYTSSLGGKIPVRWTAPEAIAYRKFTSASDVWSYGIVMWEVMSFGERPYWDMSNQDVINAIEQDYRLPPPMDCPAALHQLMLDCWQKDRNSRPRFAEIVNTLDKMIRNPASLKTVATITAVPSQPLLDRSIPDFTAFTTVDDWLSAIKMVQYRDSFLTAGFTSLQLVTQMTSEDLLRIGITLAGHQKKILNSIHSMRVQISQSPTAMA

[6] = molecular target: Serine/threonine-protein kinase N1 (Homo sapiens) (UniProt Q16512); experiment: Inhibition of PKN1 (unknown origin) assessed as residual activity at 100 nM by KINOMEscan analysis relative to control
[7] = molecular target: T3, Rhodopsin kinase GRK7 (Homo sapiens) (UniProt Q8WTQ7); experiment: Inhibition of GRK7 (unknown origin) assessed as residual activity at 100 nM by KINOMEscan analysis relative to control
T3 sequence (whole entry): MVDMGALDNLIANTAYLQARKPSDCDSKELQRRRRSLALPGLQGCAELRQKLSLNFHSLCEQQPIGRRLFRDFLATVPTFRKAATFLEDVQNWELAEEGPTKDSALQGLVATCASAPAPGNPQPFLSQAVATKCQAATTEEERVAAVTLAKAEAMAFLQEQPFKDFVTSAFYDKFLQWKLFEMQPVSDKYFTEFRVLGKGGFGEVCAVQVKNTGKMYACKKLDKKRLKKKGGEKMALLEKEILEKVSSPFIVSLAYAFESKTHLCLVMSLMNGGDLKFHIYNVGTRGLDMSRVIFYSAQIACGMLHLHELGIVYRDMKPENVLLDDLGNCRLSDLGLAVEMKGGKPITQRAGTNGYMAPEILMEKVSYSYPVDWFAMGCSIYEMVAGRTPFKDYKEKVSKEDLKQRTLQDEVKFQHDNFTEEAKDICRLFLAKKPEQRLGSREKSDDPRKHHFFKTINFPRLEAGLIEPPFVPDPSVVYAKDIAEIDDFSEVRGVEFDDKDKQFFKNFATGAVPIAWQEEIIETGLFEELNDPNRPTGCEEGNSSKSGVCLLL

[8] = molecular target: MAP/microtubule affinity-regulating kinase 3 (Homo sapiens) (UniProt P27448); experiment: Inhibition of MARK3 (unknown origin) assessed as residual activity at 100 nM by KINOMEscan analysis relative to control
[9] = molecular target: Mitogen-activated protein kinase 1 (Homo sapiens) (UniProt P28482); experiment: Inhibition of ERK2 (unknown origin) assessed as residual activity at 100 nM by KINOMEscan analysis relative to control
[10] = species on record: Homo sapiens; experiment: Inhibition of N-terminal GST-tagged recombinant human SOS1 H905A mutant (564 to 1049 residues) expressed in Escherichia coli assessed as reduction in KRAS G12C mutant activation at 10 uM by HTRF analysis relative to control
[11] = system: Receptor-type tyrosine-protein kinase FLT3 (Homo sapiens), P36888 [D835Y]; experiment: Inhibition of FLT3 D835Y mutant (unknown origin) assessed as residual activity at 100 nM by KINOMEscan analysis relative to control
[12] = molecular target: Transient receptor potential cation channel subfamily M member 6 (Homo sapiens) (UniProt Q9BX84); experiment: Inhibition of TRPM6 (unknown origin) assessed as residual activity at 100 nM by KINOMEscan analysis relative to control
Chain of Transient receptor potential cation channel subfamily M member 6 (Homo sapiens) (Q9BX84 whole entry): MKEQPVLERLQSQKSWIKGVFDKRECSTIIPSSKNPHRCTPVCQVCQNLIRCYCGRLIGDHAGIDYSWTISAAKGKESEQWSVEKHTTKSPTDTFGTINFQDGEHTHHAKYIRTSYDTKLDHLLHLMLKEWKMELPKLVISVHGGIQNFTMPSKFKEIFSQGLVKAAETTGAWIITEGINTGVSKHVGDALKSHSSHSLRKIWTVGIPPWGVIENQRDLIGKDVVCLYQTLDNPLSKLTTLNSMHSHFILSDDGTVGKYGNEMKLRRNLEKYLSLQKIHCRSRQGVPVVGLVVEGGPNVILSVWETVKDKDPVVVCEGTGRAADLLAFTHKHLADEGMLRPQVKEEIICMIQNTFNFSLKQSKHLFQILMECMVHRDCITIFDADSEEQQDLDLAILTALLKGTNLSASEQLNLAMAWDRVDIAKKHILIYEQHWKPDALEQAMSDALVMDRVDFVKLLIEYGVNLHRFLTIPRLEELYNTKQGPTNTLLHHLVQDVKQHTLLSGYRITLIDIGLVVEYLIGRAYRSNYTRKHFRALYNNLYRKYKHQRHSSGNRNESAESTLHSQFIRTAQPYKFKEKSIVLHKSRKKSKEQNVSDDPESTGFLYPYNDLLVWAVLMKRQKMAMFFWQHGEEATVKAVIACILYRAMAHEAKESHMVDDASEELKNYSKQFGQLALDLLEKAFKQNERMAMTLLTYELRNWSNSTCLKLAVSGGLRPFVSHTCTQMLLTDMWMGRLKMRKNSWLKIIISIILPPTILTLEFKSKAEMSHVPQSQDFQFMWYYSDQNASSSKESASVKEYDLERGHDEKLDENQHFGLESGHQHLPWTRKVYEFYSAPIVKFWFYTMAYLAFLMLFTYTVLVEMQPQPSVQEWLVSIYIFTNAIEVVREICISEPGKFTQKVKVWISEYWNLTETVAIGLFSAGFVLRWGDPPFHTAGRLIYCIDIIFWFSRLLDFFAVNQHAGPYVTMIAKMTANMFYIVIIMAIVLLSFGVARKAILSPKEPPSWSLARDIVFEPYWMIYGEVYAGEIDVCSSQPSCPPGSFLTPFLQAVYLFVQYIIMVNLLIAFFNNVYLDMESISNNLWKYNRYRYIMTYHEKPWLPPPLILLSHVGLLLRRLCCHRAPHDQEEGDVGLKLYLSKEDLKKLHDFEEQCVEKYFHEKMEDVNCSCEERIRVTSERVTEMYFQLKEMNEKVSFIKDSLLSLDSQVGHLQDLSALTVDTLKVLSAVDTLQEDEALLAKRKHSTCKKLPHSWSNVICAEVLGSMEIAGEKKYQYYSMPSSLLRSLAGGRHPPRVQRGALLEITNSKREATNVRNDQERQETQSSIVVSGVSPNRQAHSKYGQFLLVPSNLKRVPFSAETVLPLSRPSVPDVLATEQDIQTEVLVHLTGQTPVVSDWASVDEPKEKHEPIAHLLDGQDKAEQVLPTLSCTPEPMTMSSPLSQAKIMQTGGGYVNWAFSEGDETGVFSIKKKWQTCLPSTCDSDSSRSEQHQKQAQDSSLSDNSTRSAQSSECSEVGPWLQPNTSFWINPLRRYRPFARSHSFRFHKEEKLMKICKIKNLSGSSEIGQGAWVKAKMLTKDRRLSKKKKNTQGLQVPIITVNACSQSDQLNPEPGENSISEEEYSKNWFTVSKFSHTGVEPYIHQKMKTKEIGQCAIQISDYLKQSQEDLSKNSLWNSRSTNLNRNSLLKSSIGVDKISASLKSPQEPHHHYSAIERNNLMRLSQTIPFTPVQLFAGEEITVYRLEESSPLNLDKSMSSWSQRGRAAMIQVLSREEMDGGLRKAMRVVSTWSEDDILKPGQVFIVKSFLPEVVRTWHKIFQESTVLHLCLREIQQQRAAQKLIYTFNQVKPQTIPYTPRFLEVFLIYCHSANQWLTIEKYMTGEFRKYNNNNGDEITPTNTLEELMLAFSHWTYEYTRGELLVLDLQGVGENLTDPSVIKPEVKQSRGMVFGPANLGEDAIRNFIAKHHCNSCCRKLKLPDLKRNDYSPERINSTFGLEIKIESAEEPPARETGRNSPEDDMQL

Chain of eIF-2-alpha kinase GCN2 (Homo sapiens), Q9P2K8 [S808G] (Q9P2K8 whole entry S808G): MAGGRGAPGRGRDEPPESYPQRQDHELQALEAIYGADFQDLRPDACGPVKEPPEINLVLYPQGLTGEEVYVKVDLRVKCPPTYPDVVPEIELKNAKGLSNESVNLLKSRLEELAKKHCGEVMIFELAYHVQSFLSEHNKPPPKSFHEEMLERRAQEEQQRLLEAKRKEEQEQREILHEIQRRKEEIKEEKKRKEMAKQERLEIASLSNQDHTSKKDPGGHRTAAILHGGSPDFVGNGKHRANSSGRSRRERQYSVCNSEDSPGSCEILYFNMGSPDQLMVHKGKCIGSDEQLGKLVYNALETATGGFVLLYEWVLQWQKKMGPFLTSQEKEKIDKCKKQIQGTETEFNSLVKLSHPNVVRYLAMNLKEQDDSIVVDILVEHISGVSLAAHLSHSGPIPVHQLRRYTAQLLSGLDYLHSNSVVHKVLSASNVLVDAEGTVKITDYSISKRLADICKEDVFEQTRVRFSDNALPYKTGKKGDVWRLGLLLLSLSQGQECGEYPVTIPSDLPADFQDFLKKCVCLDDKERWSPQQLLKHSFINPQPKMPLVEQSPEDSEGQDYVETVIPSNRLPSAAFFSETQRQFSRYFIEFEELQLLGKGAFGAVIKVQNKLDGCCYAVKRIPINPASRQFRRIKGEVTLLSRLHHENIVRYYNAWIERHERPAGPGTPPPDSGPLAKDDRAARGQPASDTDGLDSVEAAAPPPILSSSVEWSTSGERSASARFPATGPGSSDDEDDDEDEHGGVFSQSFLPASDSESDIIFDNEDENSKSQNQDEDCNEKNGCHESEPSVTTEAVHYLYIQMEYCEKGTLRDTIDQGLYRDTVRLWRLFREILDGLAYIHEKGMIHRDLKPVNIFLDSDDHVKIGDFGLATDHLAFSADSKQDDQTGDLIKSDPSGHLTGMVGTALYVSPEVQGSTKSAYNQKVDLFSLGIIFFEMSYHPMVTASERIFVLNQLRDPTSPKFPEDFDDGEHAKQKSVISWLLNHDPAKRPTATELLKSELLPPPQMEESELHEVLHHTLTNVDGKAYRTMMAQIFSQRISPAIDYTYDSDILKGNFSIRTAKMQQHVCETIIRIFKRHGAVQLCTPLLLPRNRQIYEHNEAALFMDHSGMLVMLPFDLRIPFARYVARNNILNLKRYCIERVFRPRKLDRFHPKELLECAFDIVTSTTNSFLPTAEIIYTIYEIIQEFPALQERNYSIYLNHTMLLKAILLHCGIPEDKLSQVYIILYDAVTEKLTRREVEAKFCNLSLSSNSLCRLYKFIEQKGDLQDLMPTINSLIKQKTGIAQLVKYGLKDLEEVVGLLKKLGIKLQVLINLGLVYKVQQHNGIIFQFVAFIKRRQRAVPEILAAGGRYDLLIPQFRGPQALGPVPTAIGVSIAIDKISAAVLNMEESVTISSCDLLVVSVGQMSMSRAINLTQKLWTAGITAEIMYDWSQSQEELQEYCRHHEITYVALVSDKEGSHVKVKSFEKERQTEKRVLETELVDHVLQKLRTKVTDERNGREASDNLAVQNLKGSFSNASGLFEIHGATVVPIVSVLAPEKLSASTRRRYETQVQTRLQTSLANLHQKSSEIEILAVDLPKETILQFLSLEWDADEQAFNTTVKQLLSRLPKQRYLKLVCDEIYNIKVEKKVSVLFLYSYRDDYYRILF
Chain of Casein kinase I isoform gamma-2 (Homo sapiens) (P78368 whole entry, looked up, canonical isoform): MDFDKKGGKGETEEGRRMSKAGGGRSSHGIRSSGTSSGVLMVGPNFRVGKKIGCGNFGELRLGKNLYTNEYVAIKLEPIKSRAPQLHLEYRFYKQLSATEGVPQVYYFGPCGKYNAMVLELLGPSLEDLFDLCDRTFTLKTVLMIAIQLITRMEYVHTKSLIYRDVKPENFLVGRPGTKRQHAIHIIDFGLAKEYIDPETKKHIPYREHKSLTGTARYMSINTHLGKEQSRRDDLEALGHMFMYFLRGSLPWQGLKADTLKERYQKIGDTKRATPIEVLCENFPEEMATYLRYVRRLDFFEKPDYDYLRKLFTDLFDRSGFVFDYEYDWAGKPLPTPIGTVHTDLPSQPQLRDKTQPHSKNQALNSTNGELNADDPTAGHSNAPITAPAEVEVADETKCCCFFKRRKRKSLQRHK
Chain of Serine/threonine-protein kinase N1 (Homo sapiens) (Q16512 2-942 limits assumed): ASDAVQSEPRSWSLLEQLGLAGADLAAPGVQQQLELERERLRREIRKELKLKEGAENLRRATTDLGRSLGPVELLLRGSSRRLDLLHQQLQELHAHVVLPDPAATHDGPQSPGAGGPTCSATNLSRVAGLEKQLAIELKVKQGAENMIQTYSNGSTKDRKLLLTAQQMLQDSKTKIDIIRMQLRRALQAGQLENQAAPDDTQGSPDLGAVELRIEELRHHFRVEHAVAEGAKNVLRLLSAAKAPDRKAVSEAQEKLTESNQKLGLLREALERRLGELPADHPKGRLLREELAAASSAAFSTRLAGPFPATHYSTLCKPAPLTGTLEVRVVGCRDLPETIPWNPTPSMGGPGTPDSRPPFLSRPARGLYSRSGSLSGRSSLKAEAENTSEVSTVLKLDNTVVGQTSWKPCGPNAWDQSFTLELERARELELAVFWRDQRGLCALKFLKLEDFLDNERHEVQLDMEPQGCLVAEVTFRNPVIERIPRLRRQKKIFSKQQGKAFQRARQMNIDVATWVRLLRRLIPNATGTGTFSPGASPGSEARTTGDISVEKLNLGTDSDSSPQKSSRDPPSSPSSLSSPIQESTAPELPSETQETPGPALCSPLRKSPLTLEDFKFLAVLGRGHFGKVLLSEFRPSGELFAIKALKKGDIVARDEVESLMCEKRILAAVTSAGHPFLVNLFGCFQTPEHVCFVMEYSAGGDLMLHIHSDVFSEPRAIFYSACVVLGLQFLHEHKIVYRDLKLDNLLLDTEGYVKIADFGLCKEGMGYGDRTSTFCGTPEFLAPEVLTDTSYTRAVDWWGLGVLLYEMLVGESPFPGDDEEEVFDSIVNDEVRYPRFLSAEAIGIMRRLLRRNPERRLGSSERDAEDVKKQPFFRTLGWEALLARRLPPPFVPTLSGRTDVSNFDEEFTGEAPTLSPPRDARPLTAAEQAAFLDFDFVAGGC

With `COc1cc2ncnc(N[C@H](C)c3cccc4ccccc34)c2cc1OC` the Activity [1] was 100%, the Activity [2] was 100% and the Activity [3] was 91%. The Activity [4] was 73%, the Activity [5] was 83% and the Activity [6] was 92%. The Activity [7] was 84%, the Activity [8] was 88% and the Activity [9] was 72%. The inhibition [10] was 52%, the Activity [11] was 98% and the Activity [12] was 84%.
